{"source": "ChEMBL document CHEMBL1255229", "about": "“Novel antimicrobial peptides that exhibit activity against select agents and other drug resistant bacteria” (2010)", "assay_type_in_all_cases": "functional", "key": {"[1]": {"system": "Staphylococcus aureus", "assay": "Antimicrobial activity against methicillin-resistant Staphylococcus aureus ATCC 33591 after 24 hrs", "conditions": "ATCC 33591, 24 h"}, "[2]": {"system": "Francisella tularensis", "assay": "Antimicrobial activity against Francisella tularensis SCHU-S4 after 24 hrs", "conditions": "SCHU-S4, 24 h"}, "[3]": {"system": "Brucella suis", "assay": "Antimicrobial activity against Brucella suis ATCC 23445 after 24 hrs", "conditions": "ATCC 23445, 24 h"}, "[4]": {"system": "Bacillus anthracis", "assay": "Antimicrobial activity against Bacillus anthracis Ames after 24 hrs"}, "[5]": {"system": "Yersinia pestis", "assay": "Antimicrobial activity against Yersinia pestis CO92 after 24 hrs", "conditions": "CO92, 24 h"}, "[6]": {"system": "Acinetobacter baumannii", "assay": "Antimicrobial activity against Acinetobacter baumannii WRAIR after 24 hrs"}, "[7]": {"system": "Acinetobacter baumannii", "assay": "Antimicrobial activity against Acinetobacter baumannii ATCC 19606 after 24 hrs", "conditions": "ATCC 19606 = CIP 70.34 = JCM 6841, 24 h"}, "[8]": {"system": "Burkholderia pseudomallei", "assay": "Antimicrobial activity against Burkholderia pseudomallei BURK003(1026b) after 24 hrs"}, "[9]": {"system": "Brucella melitensis", "assay": "Antimicrobial activity against Brucella melitensis 16 M after 24 hrs"}, "[10]": {"system": "Burkholderia mallei", "assay": "Antimicrobial activity against Burkholderia mallei ATCC 23444 after 24 hrs", "conditions": "ATCC 23444, 24 h"}, "[11]": {"system": "Brucella abortus", "assay": "Antimicrobial activity against Brucella abortus 2308 after 24 hrs", "conditions": "Brucella abortus, 2308, 24 h"}}, "note": "Starred links: 1 amine or outer side, 2 acyl side, 3 side chain; linkers in the order of their positions; H or OH if unused. Non-standard residues stand in square brackets, D forms with d. Residues, ends and D or L forms follow the SMILES beside them. ξ: configuration not given here. Pro(3ξ,4ξ-(CH2)4) = O=C(O)[C@H]1NCC2CCCCC21; Oic = O=C(O)[C@@H]1C[C@@H]2CCCC[C@@H]2N1; X1 = O=C([C@@H]1CN([*:1])C2CCCCC21)[*:2]; X2 = O=C([C@H]1CN([*:1])C2CCCCC21)[*:2]; Tic = O=C(O)[C@@H]1Cc2ccccc2CN1; Ahx = NCCCCCC(=O)O; βAla = NCCC(=O)O", "data": [{"smiles": "CC(=O)NCC(=O)N[C@@H](Cc1ccccc1)C(=O)N1C[C@@H](C(=O)N2C[C@H](C(=O)NCC(=O)N[C@@H](CCCCN)C(=O)N3C[C@@H](C(=O)N4C[C@@H](C(=O)NCC(=O)N[C@@H](Cc5ccccc5)C(=O)N5C[C@@H](C(=O)N6C[C@@H](C(=O)NCC(=O)N[C@@H](CCCCN)C(=O)N7Cc8ccccc8C[C@H]7C(=O)N[C@@H](CCCCN)C(=O)N[C@@H](CCCCN)C(=O)N[C@@H](CCCCN)C(=O)N[C@@H](CCCCN)C(N)=O)C7CCCCC76)C6CCCCC65)C5CCCCC54)C4CCCCC43)C3CCCCC32)C2CCCCC21", "note": "(stereo not given in full) (Ac-GF[X1][X2]GK[X1][X1]GF[X1][X1]GK[Tic]KKKK-NH2)", "values": [{"measurement": "MIC", "setting": "[1]", "result": 207, "unit": "µM"}, {"measurement": "MIC", "setting": "[2]", "result": 104, "unit": "µM"}, {"measurement": "MIC", "setting": "[3]", "result": 207, "unit": "µM"}, {"measurement": "MIC", "setting": "[4]", "result": 26, "unit": "µM"}, {"measurement": "MIC", "setting": "[5]", "result": 207, "unit": "µM"}, {"measurement": "MIC", "setting": "[6]", "result": 3.2, "unit": "µM"}, {"measurement": "MIC", "setting": "[7]", "result": 3.2, "unit": "µM"}, {"measurement": "MIC", "setting": "[8]", "result": 207, "unit": "µM"}, {"measurement": "MIC", "setting": "[9]", "result": 207, "unit": "µM"}, {"measurement": "MIC", "setting": "[10]", "result": 207, "unit": "µM"}, {"measurement": "MIC", "setting": "[11]", "result": 207, "unit": "µM"}]}, {"smiles": "CC(=O)NCCCCCC(=O)N[C@@H](Cc1ccccc1)C(=O)N1Cc2ccccc2C[C@H]1C(=O)N1CC2CCCCC2[C@H]1C(=O)NCCCCCC(=O)N[C@@H](CCCCN)C(=O)N1Cc2ccccc2C[C@H]1C(=O)N1CC2CCCCC2[C@H]1C(=O)NCCCCCC(=O)N[C@@H](Cc1ccccc1)C(=O)N1Cc2ccccc2C[C@H]1C(=O)N1CC2CCCCC2[C@H]1C(=O)NCCCCCC(=O)N[C@@H](CCCCN)C(=O)N1Cc2ccccc2C[C@H]1C(=O)N[C@@H](CCCCN)C(=O)N[C@@H](CCCCN)C(=O)N[C@@H](CCCCN)C(=O)N[C@@H](CCCCN)C(N)=O", "note": "(stereo not given in full) (Ac-[Ahx]F[Tic][Pro(3ξ,4ξ-(CH2)4)][Ahx]K[Tic][Pro(3ξ,4ξ-(CH2)4)][Ahx]F[Tic][Pro(3ξ,4ξ-(CH2)4)][Ahx]K[Tic]KKKK-NH2)", "values": [{"measurement": "MIC", "setting": "[1]", "result": 187, "unit": "µM"}, {"measurement": "MIC", "setting": "[2]", "result": 23.4, "unit": "µM"}, {"measurement": "MIC", "setting": "[3]", "result": 47, "unit": "µM"}, {"measurement": "MIC", "setting": "[4]", "result": 1.5, "unit": "µM"}, {"measurement": "MIC", "setting": "[5]", "result": 23.4, "unit": "µM"}, {"measurement": "MIC", "setting": "[6]", "result": 2.9, "unit": "µM"}, {"measurement": "MIC", "setting": "[7]", "result": 5.9, "unit": "µM"}, {"measurement": "MIC", "setting": "[8]", "result": 187, "unit": "µM"}, {"measurement": "MIC", "setting": "[9]", "result": 93, "unit": "µM"}, {"measurement": "MIC", "setting": "[10]", "result": 187, "unit": "µM"}, {"measurement": "MIC", "setting": "[11]", "result": 12, "unit": "µM"}]}, {"smiles": "CC(=O)NCC(=O)N[C@@H](Cc1ccccc1)C(=O)N1Cc2ccccc2C[C@H]1C(=O)N1C[C@@H](C(=O)NCC(=O)N[C@@H](CCCCN)C(=O)N2Cc3ccccc3C[C@H]2C(=O)N2C[C@@H](C(=O)NCC(=O)N[C@@H](Cc3ccccc3)C(=O)N3Cc4ccccc4C[C@H]3C(=O)N3C[C@@H](C(=O)NCC(=O)N[C@@H](CCCCN)C(=O)N4Cc5ccccc5C[C@H]4C(=O)NCCCCCC(=O)N[C@@H](CCCCN)C(=O)N[C@@H](CCCCN)C(=O)N[C@@H](CCCCN)C(=O)N[C@@H](CCCCN)C(N)=O)C4CCCCC43)C3CCCCC32)C2CCCCC21", "note": "(stereo not given in full) (Ac-GF[Tic][X1]GK[Tic][X1]GF[Tic][X1]GK[Tic][Ahx]KKKK-NH2)", "values": [{"measurement": "MIC", "setting": "[1]", "result": 196, "unit": "µM"}, {"measurement": "MIC", "setting": "[2]", "result": 196, "unit": "µM"}, {"measurement": "MIC", "setting": "[3]", "result": 196, "unit": "µM"}, {"measurement": "MIC", "setting": "[4]", "result": 48.9, "unit": "µM"}, {"measurement": "MIC", "setting": "[5]", "result": 48.9, "unit": "µM"}, {"measurement": "MIC", "setting": "[6]", "result": 6.1, "unit": "µM"}, {"measurement": "MIC", "setting": "[7]", "result": 3, "unit": "µM"}, {"measurement": "MIC", "setting": "[8]", "result": 196, "unit": "µM"}, {"measurement": "MIC", "setting": "[9]", "result": 196, "unit": "µM"}, {"measurement": "MIC", "setting": "[10]", "result": 196, "unit": "µM"}, {"measurement": "MIC", "setting": "[11]", "result": 196, "unit": "µM"}]}, {"smiles": "CC(=O)NCCC(=O)N[C@@H](Cc1ccccc1)C(=O)N1Cc2ccccc2C[C@H]1C(=O)N1C[C@@H](C(=O)NCCC(=O)N[C@@H](CCCCN)C(=O)N2Cc3ccccc3C[C@H]2C(=O)N2C[C@@H](C(=O)NCCC(=O)N[C@@H](Cc3ccccc3)C(=O)N3Cc4ccccc4C[C@H]3C(=O)N3C[C@@H](C(=O)NCCC(=O)N[C@@H](CCCCN)C(=O)N[C@@H](CCCCN)C(=O)N[C@@H](CCCCN)C(=O)N[C@@H](CCCCN)C(=O)N[C@@H](CCCCN)C(N)=O)C4CCCCC43)C3CCCCC32)C2CCCCC21", "note": "(stereo not given in full) (Ac-[βAla]F[Tic][X1][βAla]K[Tic][X1][βAla]F[Tic][X1][βAla]KKKKK-NH2)", "values": [{"measurement": "MIC", "setting": "[1]", "result": 200, "unit": "µM"}, {"measurement": "MIC", "setting": "[2]", "result": 100, "unit": "µM"}, {"measurement": "MIC", "setting": "[3]", "result": 200, "unit": "µM"}, {"measurement": "MIC", "setting": "[4]", "result": 25, "unit": "µM"}, {"measurement": "MIC", "setting": "[5]", "result": 200, "unit": "µM"}, {"measurement": "MIC", "setting": "[6]", "result": 6.2, "unit": "µM"}, {"measurement": "MIC", "setting": "[7]", "result": 1.5, "unit": "µM"}, {"measurement": "MIC", "setting": "[8]", "result": 200, "unit": "µM"}, {"measurement": "MIC", "setting": "[9]", "result": 200, "unit": "µM"}, {"measurement": "MIC", "setting": "[10]", "result": 200, "unit": "µM"}, {"measurement": "MIC", "setting": "[11]", "result": 200, "unit": "µM"}]}, {"smiles": "CC(=O)NCC(=O)N[C@@H](Cc1ccccc1)C(=O)N1Cc2ccccc2C[C@H]1C(=O)N1[C@H](C(=O)NCC(=O)N[C@@H](CCCCN)C(=O)N2Cc3ccccc3C[C@H]2C(=O)N2[C@H](C(=O)NCC(=O)N[C@@H](Cc3ccccc3)C(=O)N3Cc4ccccc4C[C@H]3C(=O)N3[C@H](C(=O)NCC(=O)N[C@@H](CCCCN)C(=O)N4Cc5ccccc5C[C@H]4C(=O)N[C@@H](CCCCN)C(=O)N[C@@H](CCCCN)C(=O)N[C@@H](CCCCN)C(=O)N[C@@H](CCCCN)C(N)=O)C[C@@H]4CCCC[C@@H]43)C[C@@H]3CCCC[C@@H]32)C[C@@H]2CCCC[C@@H]21", "note": "(Ac-GF[Tic][Oic]GK[Tic][Oic]GF[Tic][Oic]GK[Tic]KKKK-NH2)", "values": [{"measurement": "MIC", "setting": "[1]", "result": 205, "unit": "µM"}, {"measurement": "MIC", "setting": "[2]", "result": 100, "unit": "µM"}, {"measurement": "MIC", "setting": "[3]", "result": 205, "unit": "µM"}, {"measurement": "MIC", "setting": "[4]", "result": 12.8, "unit": "µM"}, {"measurement": "MIC", "setting": "[5]", "result": 205, "unit": "µM"}, {"measurement": "MIC", "setting": "[6]", "result": 3.2, "unit": "µM"}, {"measurement": "MIC", "setting": "[7]", "result": 3.2, "unit": "µM"}, {"measurement": "MIC", "setting": "[8]", "result": 205, "unit": "µM"}, {"measurement": "MIC", "setting": "[9]", "result": 205, "unit": "µM"}, {"measurement": "MIC", "setting": "[10]", "result": 205, "unit": "µM"}, {"measurement": "MIC", "setting": "[11]", "result": 205, "unit": "µM"}]}]}
